Where only a bound is given, the exact number is not on record here.

As for `CCOc1c(O)nc(-c2ccc(Cl)c(OC)c2F)nc1C(=O)OC`, the melting point was in the range of 173 to 175 °C.
With `O=C(O)Cc1cccc2c(-c3ccccc3)nccc12` the figure was 192 °C; with `CCOC(=O)c1cnn(-c2ccc(F)cc2)c1`, 119 to 121 °C; with `O=C(c1ccccc1)C1CCN(CCS(=O)c2ccc3[nH]c(=O)oc3c2)CC1` (configuration not stated), 68 to 72 °C.
`O=C(O)c1cccc2c1CCC2Cl` (configuration not stated) yielded a melting point of 136 to 138 °C.
With `CC(=O)OC1(c2nc3ccccc3s2)C=CC(=O)C=C1` the figure was 101 °C.
`CCc1[nH]n(C2CCCC2)c2nc(COS(C)(=O)=O)nc(=O)c1-2` registered a melting point of 138 to 140 °C.
In the case of `CC(N)Cc1ncc(O)c(C(=O)c2ccccc2)c1C(=O)c1ccccc1` (configuration not stated), the melting point was in the range of 110 to 112 °C.
`O=C(Nc1ccc(Cl)cc1)c1cccc(/C=C/c2ccccn2)c1` showed a melting point of 213 °C.
In the case of `CC(=O)NCCCCC1Cc2ccccc2C1`, the melting point lay in the range of 83 to 84 °C.
Regarding `COc1ccc([N+](=O)[O-])cc1CN1CCC(=O)C(C(c2ccccc2)c2ccccc2)C1` (configuration not stated), the melting point is 119 to 120 °C.
The figure for `CC[C@@H](c1ccccc1)N(Cc1cccc(C(=O)O)c1)S(=O)(=O)c1ccc(Cl)cc1` is 65 to 67 °C; for `CCOC(=O)N1CCSC1C1=C(C)NC(=O)CS1` (configuration not stated) it is 146 to 147 °C; for `CC(C)(C)c1ccc(N2CCOCC2)c(N)c1` it is 165 to 166 °C.
`Cc1cccc(C2=C(c3ccc(S(C)(=O)=O)cc3)CN(C)C2=O)c1` showed a melting point of 163 to 165 °C.
`Cn1c(COc2ccc(Cn3cc(CCC(=O)O)c(-c4ccccc4)n3)cc2)nc2ccccc21` had a melting point of 225 to 226 °C.
Compound `Cc1c(C(=O)O)ncc2[nH]c3ccc(C4CC=CCC4)cc3c12` (configuration not stated) gave a melting point of 284 to 285 °C.
With `CC1=NN(C)C(=O)C1C(=O)Nc1cccc2c1CCC2(C)C` (configuration not stated) the figure was 141 °C.
Regarding `CCc1c(-c2ccncc2)[nH]c(-c2ccncc2)c1C(C)=O`, the melting point lay in the range of 241 to 243 °C.
The figure for `O=C(CCl)Nc1cccc([N+](=O)[O-])c1` is 110 to 112 °C.
With `CCOCc1cnc2c(N)cccc2c1Cl`, the melting point lay in the range of 90 to 93 °C.
The compound `C[C@H]1NC(Cc2ccc(Br)c(Oc3cc(C#N)cc(C(F)F)c3)c2F)=NNC1=O` returned a melting point of 184 to 186 °C.
With `O=C1c2ccc(NC(=O)C3CCCC3)cc2C(=O)c2cc(NC(=O)C3CCCC3)ccc21` the figure was 281 °C; with `COc1ccc2c(c1)CCC1C3CC4OCCOC4C3(C)CCC21C` (configuration not stated), 115 °C; with `COc1ccc(NS(=O)(=O)c2ccc(N3CCNC3=O)cc2)cc1OC`, 215 to 216 °C.
`O=C(O)CCC1(C(=O)O)NCC(=O)N1` (configuration not stated) had a melting point of 202 to 205 °C.
For the compound `O=C(CCl)c1ccc(-c2ccc(SC(F)F)cc2)cc1`, the melting point fell in the range of 102 to 104 °C.
The compound `COC(=O)c1ccc(CBr)c(CBr)c1` returned a melting point of 74 to 75 °C.
`CN1Cc2c(-c3noc(CN)n3)ncn2-c2sccc2C1=O` yielded a melting point of 181 to 183 °C.
With `Cc1c(NC(=O)c2ccccc2NCc2ccc(=O)[nH]c2)cccc1C(F)(F)F`, the melting point lay in the range of 191 to 192 °C.
`Cc1nc(C#N)nc(NCC(F)(F)F)c1I` registered a melting point of 103 to 105 °C.
The figure for `Cc1ccc(Cl)cc1NC(=S)Nc1nccs1` is 197 to 198 °C; for `CCOC(=O)c1ccc(C(C(N)=O)C(Cc2ccccc2)c2ccccc2N2CCCCC2)cc1` (configuration not stated) it is 161 to 162 °C; for `CC(C)Cn1c(CO)c(OCCCC(F)(F)F)c2cc(OCc3ccccc3)ccc2c1=O` it is 112 to 113 °C.
In turn, `COc1cc(OC)c2c(=O)[nH]c(-c3ccc(OC)c(-c4ccc(C(=O)N(C)C)cc4Cl)c3)nc2c1` returned a melting point greater than 300 °C.
With `OCC(CO)(COCc1ccccc1)COCc1ccccc1` the figure was 73 °C.
In turn, `CCc1c(Sc2cc(C)cc(C)c2)n(C/C=C/CO)c(=O)[nH]c1=O` yielded a melting point of 157 to 158 °C.
In turn, `CC(NC(=O)Cc1cc(F)cc(F)c1)C(=O)NC1NC(=O)Cc2cc(F)ccc21` (configuration not stated) came in with a melting point of 195 to 200 °C.
Regarding `CCOC(=O)C(C)(C)n1c(=O)c2ccccc2n(CCCCBr)c1=O`, the melting point fell in the range of 113 to 114 °C.
Regarding `CCNC(=O)n1nc(Oc2c(Cl)cc(C(F)(F)F)cc2Cl)cc1-c1ccc(Cl)cc1`, the melting point lay within 88 to 89 °C.
`Cc1cccc(-c2nc3ccccn3c2-c2ccnc(-c3ccc(N4CCOCC4)cc3)c2)n1` had a melting point of 190 °C.
As to `COc1cccc2c(Nc3ccc(C(=O)NC4CCN(Cc5ccccc5)CC4)cc3)c(C(=O)NC3CCN(CCc4ccccc4)CC3)cnc12`, the melting point lay within 216 to 220 °C.
`CCCC/C=C\CCCCCCCC(=O)Nc1nc(CC(=O)O)cs1` showed a melting point of 110 to 111 °C.
Regarding `CC(C)CC1(C(N)C(=O)OC(C)(C)C)CCN(CCc2ccccc2)C1=O` (configuration not stated), the melting point lay within 111 to 113 °C.
As to `Cc1ccc(-c2cc(N)c(Cl)c(C(=O)O)n2)cc1C`, the melting point fell in the range of 192 to 194 °C.
In the case of `CC(=O)NCCNCC(O)COc1ccc(CCOCC2CCC2)cc1` (configuration not stated), the melting point was found to be 108 °C.
Take `CN1CC(CCCl)Oc2ccccc2C1=S` (configuration not stated): the melting point was in the range of 105 to 108 °C.
Regarding `CNC(=C[N+](=O)[O-])NCc1cnc(Cl)s1`, the melting point was found to be 181 °C.
Consider `O=C(c1c[nH]c2cc(Cl)ccc12)C(F)(F)F`, for which the melting point was in the range of 256 to 258 °C.
The figure for `O=C1OC(CCCCN2CCN(c3ccccc3O)CC2)CN1c1ccccc1` (configuration not stated) is 123 to 129 °C; for `Cc1nn(C)cc1C(=O)Nc1cccc2c1CCC2(C)C` it is 147 °C; for `CC(C)c1nc2cc(COc3ccc(CC4SC(=O)NC4=O)cc3)ccc2o1` (configuration not stated) it is 128 to 131 °C.
The figure for `CN(C)C(=O)NCc1ccc(Nc2n[nH]c3ncnc(Nc4cccc(Cl)c4)c23)cc1` is 238 to 240 °C.
For `Cc1cccc(N(C)c2nc(Cl)nc(Cl)n2)c1C`, the melting point was in the range of 140 to 141 °C.
For `O=CNc1ccc(C2=NNC(=O)C3CC23)cc1` (configuration not stated), the melting point is 239 to 240 °C.
Compound `CCC(=O)c1ccc2c(Cc3ccccc3)c(CC)oc2c1` registered a melting point of 86 to 87 °C.
In turn, `CC(CO)COc1ccc(C#Cc2ccc(C(=O)O)cc2)cc1C12CC3CC(CC(C3)C1)C2` (configuration not stated) had a melting point of 260 to 262 °C.
The figure for `CC(=Cc1ccccc1)c1ncccc1C(N)=O` is 150 to 155 °C; for `Cc1cc2c(c(C)c1N)C(c1ccc(C(C)C)cc1)C(C)(C)O2` (configuration not stated) it is 98 to 100 °C; for `CSC(=S)NCc1ccc(O)cc1` it is 90 to 91 °C.
Compound `CCCCc1cc(O)cc(=O)o1` returned a melting point of 110 to 111 °C.
In turn, `C#CCNC1=Nc2ccc(Cl)cc2C(c2ccccc2)=NC1` yielded a melting point of 202 °C.
`CS(=O)(=O)Nc1cc(F)cc(C(O)CN)c1` (configuration not stated) registered a melting point of 167 to 169 °C.
Consider `O=C1CCCCN1Cc1ccc[nH]1`, for which the melting point was 106 °C.
As to `COc1cc(OCC(=O)O)cc2c1C(Cl)=CC1(CCCCC1)O2`, the melting point is 132 to 133 °C.
The figure for `CC(=O)NC[C@H]1CN(c2ccc(C3CCN(C(=O)CO)CC3)c(F)c2)C(=O)O1` is 182 to 183 °C.
For `CC(C)n1nnc(-c2cnc3ccccn3c2=O)n1`, the melting point is 146 to 148 °C.

The values are drawn from a melting point compilation (Tetko et al.; mined from patent text by program, amines drawn as free bases though some values may be those of a salt).
